Source: ChEMBL document CHEMBL1130669, “Resveratrol as a new type of DNA-cleaving agent” (1998)

Tests used:
Escherichia coli [1] = experiment: Compound was tested for its ability to inhibit DNA strand scission induced by resveratrol and Cu2+, at concentration 1 mM; type: functional
Escherichia coli [2] = experiment: Compound was tested for its ability to inhibit DNA strand scission induced by resveratrol and Cu2+, at concentration 50 mM; type: functional

## Cc1ccoc1C
Escherichia coli [1]
  inhibition at 1000 µM: 98.7%

## CCO [ALCOHOL]
Escherichia coli [2]
  inhibition at 50000 µM: 1.9%

## C[S+](C)[O-] [DIMETHYL SULFOXIDE]
Escherichia coli [2]
  inhibition at 50000 µM: 2.8%

## OC[C@@H](O)[C@@H](O)[C@H](O)[C@H](O)CO [MANNITOL]
Escherichia coli [2]
  inhibition at 50000 µM: 0.6%

## [I-].[K+] [POTASSIUM IODIDE]
Escherichia coli [2]
  inhibition at 50000 µM: 61.5%

## [N-]=[N+]=[N-] [SODIUM AZIDE]
Escherichia coli [2]
  inhibition at 50000 µM: 1.2%

## NC(N)=S [THIOUREA]
Escherichia coli [2]
  inhibition at 50000 µM: 93.8%

## O=S(=O)(O)c1cc(O)c(O)c(S(=O)(=O)O)c1 [TIRON]
Escherichia coli [1]
  inhibition at 1000 µM: 96.5%
